Measurements published in ChEMBL document CHEMBL1629573, “OPT-80 eliminates Clostridium difficile and is sparing of bacteroides species during treatment of C. difficile infection” (2009).
≈ marks a conversion by molar mass, not a printed value. Calls of active or inactive are those of the source. The calls are words filed in the database; no cut-off is given here.

Legend:
[1] = system: Bacteroides; experiment: Antimicrobial activity against Bacteroides group obtained from patient with Clostridium difficile infection assessed as bacterial count per gram of wet stool at 125 mg/kg, po administered QID measured on day 10 by the two-tailed Wilcoxon matched-pair, signed-rank test; format: functional, Feces
[2] = system: Clostridioides difficile; experiment: Antimicrobial activity against Clostridium difficile obtained from patient with Clostridium difficile infection assessed as bacterial count per gram of wet stool at 125 mg/kg, po BID measured on day 10 by the two-tailed Wilcoxon matched-pair, signed-rank test; format: functional, organism-based; parameters: dose 125 mg/kg; conditions: Feces
[3] = system: Clostridioides difficile; experiment: Antimicrobial activity against Clostridium difficile obtained from patient with Clostridium difficile infection assessed as bacterial count per gram of wet stool at 125 mg/kg, po BID measured on day 4 by the two-tailed Wilcoxon matched-pair, signed-rank test; format: functional, organism-based; parameters: dose 125 mg/kg; conditions: Feces
[4] = system: Clostridioides difficile; experiment: Antimicrobial activity against Clostridium difficile obtained from patient with Clostridium difficile infection assessed as bacterial count per gram of wet stool at 125 mg/kg, po BID measured at 21 to 28 days by the two-tailed Wilcoxon matched-pair, signed-rank test; format: functional, Feces
[5] = system: Clostridioides difficile; experiment: Antimicrobial activity against Clostridium difficile obtained from patient with Clostridium difficile infection assessed as reduction in bacterial cytotoxin B in patients at 200 mg/kg, po BID measured at 21 to 28 days by the two-tailed Wilcoxon matched-pair, signed-rank test; format: functional, organism-based; parameters: dose 200 mg/kg
[6] = system: Clostridioides difficile; experiment: Antimicrobial activity against Clostridium difficile obtained from patient with Clostridium difficile infection assessed as reduction in bacterial cytotoxin B in patients at 100 mg/kg, po BID measured at 21 to 28 days by the two-tailed Wilcoxon matched-pair, signed-rank test; format: functional, organism-based; parameters: dose 100 mg/kg
[7] = system: Clostridioides difficile; experiment: Antimicrobial activity against Clostridium difficile obtained from patient with Clostridium difficile infection assessed as bacterial count per gram of wet stool at 50 mg/kg, po BID measured on day 4 by the two-tailed Wilcoxon matched-pair, signed-rank test; format: functional, organism-based; parameters: dose 50 mg/kg; conditions: Feces
[8] = system: Clostridioides difficile; experiment: Antimicrobial activity against Clostridium difficile; format: functional
[9] = system: Bacteroides sp.; experiment: Antimicrobial activity against […] Bacteroides sp.; format: functional
[10] = system: Bacteroides sp.; experiment: Antimicrobial activity against […] gram-negative Bacteroides sp.; format: functional
[11] = system: Bacteroides; experiment: Antimicrobial activity against Bacteroides group obtained from patient with Clostridium difficile infection assessed as bacterial count per gram of wet stool at 50 mg/kg, po BID measured on day 10 by the two-tailed Wilcoxon matched-pair, signed-rank test; format: functional, Feces
[12] = system: Bacteroides; experiment: Antimicrobial activity against Bacteroides group obtained from patient with Clostridium difficile infection assessed as bacterial count per gram of wet stool at 100 mg/kg, po BID measured on day 10 by the two-tailed Wilcoxon matched-pair, signed-rank test; format: functional, Feces
[13] = system: Bacteroides; experiment: Antimicrobial activity against Bacteroides group obtained from patient with Clostridium difficile infection assessed as bacterial count per gram of wet stool at 200 mg/kg, po BID measured on day 10 by the two-tailed Wilcoxon matched-pair, signed-rank test; format: functional, Feces
[14] = system: Clostridioides difficile; experiment: Antimicrobial activity against Clostridium difficile obtained from patient with Clostridium difficile infection assessed as bacterial count per gram of wet stool at 50 mg/kg, po BID measured on day 10 by the two-tailed Wilcoxon matched-pair, signed-rank test; format: functional, organism-based; parameters: dose 50 mg/kg; conditions: Feces
[15] = system: Clostridioides difficile; experiment: Antimicrobial activity against Clostridium difficile obtained from patient with Clostridium difficile infection assessed as bacterial count per gram of wet stool at 100 mg/kg, po BID measured on day 10 by the two-tailed Wilcoxon matched-pair, signed-rank test; format: functional, organism-based; parameters: dose 100 mg/kg; conditions: Feces
[16] = system: Clostridioides difficile; experiment: Antimicrobial activity against Clostridium difficile obtained from patient with Clostridium difficile infection assessed as bacterial count per gram of wet stool at 200 mg/kg, po BID measured on day 10 by the two-tailed Wilcoxon matched-pair, signed-rank test; format: functional, organism-based; parameters: dose 200 mg/kg; conditions: Feces
[17] = system: Clostridioides difficile; experiment: Antimicrobial activity against Clostridium difficile obtained from patient with Clostridium difficile infection assessed as bacterial count per gram of wet stool at 100 mg/kg, po BID measured on day 4 by the two-tailed Wilcoxon matched-pair, signed-rank test; format: functional, organism-based; parameters: dose 100 mg/kg; conditions: Feces
[18] = system: Clostridioides difficile; experiment: Antimicrobial activity against Clostridium difficile obtained from patient with Clostridium difficile infection assessed as bacterial count per gram of wet stool at 200 mg/kg, po BID measured on day 4 by the two-tailed Wilcoxon matched-pair, signed-rank test; format: functional, organism-based; parameters: dose 200 mg/kg; conditions: Feces
[19] = system: Clostridioides difficile; experiment: Antimicrobial activity against Clostridium difficile obtained from patient with Clostridium difficile infection assessed as bacterial count per gram of wet stool at 200 mg/kg, po BID measured on day 8 by the two-tailed Wilcoxon matched-pair, signed-rank test; format: functional, organism-based; parameters: dose 200 mg/kg; conditions: Feces
[20] = system: Clostridioides difficile; experiment: Antimicrobial activity against Clostridium difficile obtained from patient with Clostridium difficile infection assessed as bacterial count per gram of wet stool at 50 mg/kg, po BID measured at 21 to 28 days by the two-tailed Wilcoxon matched-pair, signed-rank test; format: functional, Feces
[21] = system: Clostridioides difficile; experiment: Antimicrobial activity against Clostridium difficile obtained from patient with Clostridium difficile infection assessed as bacterial count per gram of wet stool at 100 mg/kg, po BID measured at 21 to 28 days by the two-tailed Wilcoxon matched-pair, signed-rank test; format: functional, Feces
[22] = system: Clostridioides difficile; experiment: Antimicrobial activity against Clostridium difficile obtained from patient with Clostridium difficile infection assessed as bacterial count per gram of wet stool at 200 mg/kg, po BID measured at 21 to 28 days by the two-tailed Wilcoxon matched-pair, signed-rank test; format: functional, Feces

## CN[C@H](CC(C)C)C(=O)N[C@H]1C(=O)N[C@@H](CC(N)=O)C(=O)N[C@H]2C(=O)N[C@H]3C(=O)N[C@H](C(=O)N[C@H](C(=O)O)c4cc(O)cc(O)c4-c4cc3ccc4O)[C@H](O)c3ccc(c(Cl)c3)Oc3cc2cc(c3O[C@@H]2O[C@H](CO)[C@@H](O)[C@H](O)[C@H]2O[C@H]2C[C@](C)(N)[C@H](O)[C@H](C)O2)Oc2ccc(cc2Cl)[C@H]1O [VANCOMYCIN]
[1]
  log10cfu: 3.6
[2]
  Activity: Active
[3]
  Activity: Active
[4]
  log10cfu: 5.4

## CCc1c(Cl)c(O)c(Cl)c(O)c1C(=O)O[C@H]1[C@H](O)[C@H](OC)[C@H](OC/C2=C\C=C\C[C@H](O)/C(C)=C/[C@H](CC)[C@@H](O[C@@H]3OC(C)(C)[C@@H](OC(=O)C(C)C)[C@H](O)[C@@H]3O)/C(C)=C/C(C)=C/C[C@@H]([C@@H](C)O)OC2=O)O[C@@H]1C [FIDAXOMICIN]
[5]
  Activity: Active
[6]
  Activity: Active
[7]
  Activity: Active
[8]
  MIC90: 0.12 µg/mL (≈ 0.113 µM)
[9]
  MIC90: > 1020 µg/mL
[10]
  MIC90: > 1020 µg/mL
[11]
  log10cfu: 8.2
[12]
  log10cfu: 6.3
[13]
  log10cfu: 7.3
[14]
  Activity: Active
[15]
  Activity: Active
[16]
  Activity: Active
[17]
  Activity: Active
[18]
  Activity: Active
[19]
  Activity: Active
[20]
  log10cfu: 3.9
[21]
  log10cfu: 3.6
[22]
  log10cfu: 3.1
